Source: patent US20240239794A1, “PKC-Theta Modulators” (Exscientia AI Limited, priority 2021, published 2024)
Counter-ions that a name gives are not always drawn. Like-named read-outs stand apart in the source and are kept apart here.

Experiments:
[1] = molecular target: Recombinant human PKC-theta (His-tagged 362-706) (Homo sapiens (Human), UniProt Q04759); assay: PKC-theta inhibition assay (HTRF KinEASE kit); format: biochemical; details: ATP 6.5 μM
Summary of the method: (§1)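 Ten semi-log compound doses were fitted by 4-parameter logistic to HTRF acceptor/donor ratios for IC50. Reactions at 25° C used 6.5 μM ATP and 525 nM STK substrate for 30 min (PKC-theta) or 5.7 μM ATP and 243 nM substrate for 20 min (PKC-delta), after 30 min on-ice enzyme–compound preincubation at 10 ng/ml enzyme.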

[2] = molecular target: Recombinant human PKC-delta (His-tagged 345-676) (Homo sapiens (Human), UniProt Q05655); assay: PKC-delta inhibition assay (HTRF KinEASE kit), PKC-theta/PKC-delta selectivity; format: biochemical; details: ratio; for PKC-theta/PKC-delta selectivity: PKC-theta over PKC-delta, HTRF assays; for PKC-theta/PKC-delta selectivity (binned): binned A to G
Summary of the method: as §1

[3] = system: IL-2 secretion by human effector memory T cells (TEM); assay: Effector memory T cells IL-2 release assay; format: cell-based; details: T-cell, 24 h
Summary of the method: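 IC50 values come from a 4-parameter fit of HTRF-measured IL-2 against 10 semi-log doses, relative to maximal IL-2 in each experiment. Donor-derived CD4+ TEM cells were bead-stimulated (anti-CD3/CD28) with compound for 24 h at 37° C; cytotoxicity was excluded by viability dye staining.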

[4] = binned A to H, read-out: PKC-theta HTRF pIC50 (binned) (converted)
[5] = human CD4+ TEM cells, CD3/CD28 bead stimulation, binned A to G, read-out: PKC-theta IL2 pIC50 (binned) (converted)
[6] = human CD4+ TEM cells, CD3/CD28 bead stimulation, read-out: PKC-theta IL2 pIC50 (converted)
[7] = read-out: PKC-theta HTRF pIC50 (converted)

Chain of Recombinant human PKC-delta (His-tagged 345-676) (Q05655 345-676): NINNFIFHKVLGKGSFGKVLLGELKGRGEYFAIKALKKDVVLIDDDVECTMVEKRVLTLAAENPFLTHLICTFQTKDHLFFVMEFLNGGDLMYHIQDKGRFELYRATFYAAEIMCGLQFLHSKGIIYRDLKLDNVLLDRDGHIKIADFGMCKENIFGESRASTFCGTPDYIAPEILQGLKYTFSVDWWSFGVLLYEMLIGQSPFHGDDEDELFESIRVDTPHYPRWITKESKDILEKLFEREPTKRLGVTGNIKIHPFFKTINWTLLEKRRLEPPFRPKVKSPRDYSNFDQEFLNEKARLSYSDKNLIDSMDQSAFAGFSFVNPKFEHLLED
Chain of Recombinant human PKC-theta (His-tagged 362-706) (Q04759 362-706): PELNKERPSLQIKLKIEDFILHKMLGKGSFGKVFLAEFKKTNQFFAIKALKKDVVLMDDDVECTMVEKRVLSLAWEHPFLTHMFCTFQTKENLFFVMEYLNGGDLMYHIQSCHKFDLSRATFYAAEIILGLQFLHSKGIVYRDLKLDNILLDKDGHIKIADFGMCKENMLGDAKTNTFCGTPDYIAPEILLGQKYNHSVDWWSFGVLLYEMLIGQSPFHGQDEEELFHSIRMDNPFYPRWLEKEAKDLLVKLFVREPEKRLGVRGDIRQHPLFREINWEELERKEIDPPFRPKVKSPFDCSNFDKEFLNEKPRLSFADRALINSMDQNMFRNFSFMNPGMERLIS

Row | PKC-theta HTRF pIC50 [1] | IC50 [1, 4] [nM] | PKC-theta/PKC-delta selectivity [2] | PKC-theta/PKC-delta selectivity (binned) [2] | IC50 [3, 5] [nM] | IC50 [3, 6] [nM] | IC50 [1, 7] [nM] | Compound | IC50 ([3]; Homo sapiens, read-out: PKC-theta IL2 pIC50 (binned) (converted)) [nM] | IC50 ([3]; Homo sapiens, read-out: PKC-theta IL2 pIC50 (converted)) [nM]
1 | – | 3.16 to 10 | 14 | D (D means a ratio of between 10 and 20) | 100 to 316 | 200 | 3.98 | CC[C@@]1(OC)C(=O)Nc2nccc(-c3nn(CC4(F)CCNCC4)c4ccccc34)c21 (single isomer, unassigned) [Example 88] | – | –
2 | – | 10 to 31.6 | 23 | C (C means a ratio of between 20 and 30) | 316 to 1000 | 631 | 20 | CC[C@@]1(C)C(=O)Nc2nccc(-c3nn([C@H]4CCNC[C@H]4F)c4ccccc34)c21 (single isomer, unassigned) [Example 107] | – | –
3 | – | 10 to 31.6 | 33 | B (B means a ratio of between 30 and 50) | 316 to 1000 | 398 | 12.6 | CC[C@@]1(C)C(=O)Nc2nccc(-c3nn([C@@H]4CCNC[C@@H]4F)c4ccccc34)c21 (single isomer, unassigned) [Example 105] | – | –
4 | – | 31.6 to 100 | 10 | E (E means a ratio of between 5 and 10) | > 1000 | 1260 | 50.1 | CC[C@]1(O)C(=O)Nc2nccc(-c3nn([C@@H]4CCNC[C@@H]4F)c4ccccc34)c21 (single isomer, unassigned) [Example 85] | – | –
5 | – | 3.16 to 10 | 23 | C (C means a ratio of between 20 and 30) | 100 to 316 | 126 | 3.98 | CN[C@@]1(C)C(=O)Nc2nccc(-c3nn(C4(CC#N)CCC4)c4ccccc34)c21 (single isomer, unassigned) [Example 94] | – | –
6 | – | ≤ 1 | 17 | D (D means a ratio of between 10 and 20) | 10 to 31.6 | 12.6 | 0.794 | CC[C@@]1(C)C(=O)Nc2nccc(-c3nn([C@H]4CCNC[C@H]4F)c4cc(F)ccc34)c21 (single isomer, unassigned) [Example 104] | – | –
7 | 9.0 | ≤ 1 | 38 | B (B means a ratio of between 30 and 50) | 31.6 to 100 | 50.1 | – | CC1(C)C(=O)Nc2nccc(-c3nn(C[C@@]4(C)COCCN4)c4cc(F)ccc34)c21 [Example 87] | – | –
8 | – | 31.6 to 100 | 9 | E (E means a ratio of between 5 and 10) | > 1000 | 1260 | 100 | CC[C@]1(O)C(=O)Nc2nccc(-c3nn(C4(CC#N)CCC4)c4ccccc34)c21 (single isomer, unassigned) [Example 69] | – | –
9 | – | ≤ 1 | 12 | D (D means a ratio of between 10 and 20) | 10 to 31.6 | 10 | 0.251 | CC[C@@]1(O)C(=O)Nc2nccc(-c3nn(C4(CC#N)CCC4)c4ccccc34)c21 (single isomer, unassigned) [Example 68] | – | –
10 | – | 1 to 3.16 | 23 | C (C means a ratio of between 20 and 30) | 31.6 to 100 | 39.8 | 2.51 | CC[C@@]1(C)C(=O)Nc2nccc(-c3nn([C@@H]4CCNC[C@@H]4F)c4ccc(F)cc34)c21 (single isomer, unassigned) [Example 97] | – | –
11 | – | 31.6 to 100 | 20 | C (C means a ratio of between 20 and 30) | 316 to 1000 | 794 | 31.6 | CO[C@]1(C)C(=O)Nc2nccc(-c3nn(C4(CC#N)CCC4)c4ccccc34)c21 (single isomer, unassigned) [Example 81] | – | –

Second part, the compound before the results:

Row | Compound | PKC-theta HTRF pIC50 [1] | IC50 [1, 4] [nM] | PKC-theta/PKC-delta selectivity [2] | PKC-theta/PKC-delta selectivity (binned) [2] | IC50 [3, 5] [nM] | IC50 [3, 6] [nM] | IC50 [1, 7] [nM] | IC50 ([3]; Homo sapiens, read-out: PKC-theta IL2 pIC50 (binned) (converted)) [nM] | IC50 ([3]; Homo sapiens, read-out: PKC-theta IL2 pIC50 (converted)) [nM]
12 | CC1(O)C(=O)Nc2nccc(-c3nn(C4(CC#N)CCC4)c4ccccc34)c21 (stereo not drawn) [Example 25, 2-[1-[3-(3-hydroxy-3-methyl-2-oxo-1H-pyrrolo[2,3-b]pyridin-4-yl)indazol-1-yl]cyclobutyl]acetonitrile] | 9.3 | ≤ 1 | 6 | E (E means a ratio of between 5 and 10) | 10 to 31.6 | 20 | – | – | –
13 | CC1(C)C(=O)Nc2nccc(-c3nn([C@H]4CCNC4)c4ccccc34)c21 [Example 16, 3,3-dimethyl-4-[1-[(3S)-pyrrolidin-3-yl]indazol-3-yl]-1H-pyrrolo[2,3-b]pyridin-2-one Dihydrochloride] | 8.3 | 3.16 to 10 | 18 | D (D means a ratio of between 10 and 20) | – | – | – | 31.6 to 100 | 63.1
14 | CCC1(O)C(=O)Nc2nccc(-c3nn([C@@H]4CCNC[C@@H]4F)c4ccccc34)c21 (stereo partly drawn) [Example 56] | 8.7 | 1 to 3.16 | 15 | D (D means a ratio of between 10 and 20) | 31.6 to 100 | 50.1 | – | – | –
15 | CC[C@@]1(C)C(=O)Nc2nccc(-c3nn([C@H]4CCNC4)c4ccccc34)c21 (single isomer, unassigned) [Example 66] | – | 3.16 to 10 | 21 | C (C means a ratio of between 20 and 30) | 31.6 to 100 | 100 | 3.98 | – | –
16 | CC1(C)C(=O)Nc2nccc(-c3nn([C@@H]4CCNC[C@@H]4F)c4ccccc34)c21 [Example 37] | 8.6 | 1 to 3.16 | 19 | D (D means a ratio of between 10 and 20) | 10 to 31.6 | 25.1 | – | – | –
17 | CC1(O)C(=O)Nc2nccc(-c3ccn(C4CCNCC4)c3)c21 (stereo not drawn) [Example 11] | 7.2 | 31.6 to 100 | 4 | F (F means a ratio of between 1 and 5) | > 1000 | 1580 | – | – | –
18 | C[C@@]1(O)C(=O)Nc2nccc(-c3nn(CC4CCNCC4)c4ccccc34)c21 (single isomer, unassigned) [Example 29] | – | ≤ 1 | 24 | C (C means a ratio of between 20 and 30) | 31.6 to 100 | 39.8 | 0.398 | – | –
19 | CC[C@]1(C)C(=O)Nc2nccc(-c3nn([C@H]4CCNC4)c4ccccc34)c21 (single isomer, unassigned) [Example 65] | – | 31.6 to 100 | 28 | C (C means a ratio of between 20 and 30) | 316 to 1000 | 398 | 50.1 | – | –
20 | CC1(C)C(=O)Nc2nccc(-c3ccn(C4CCNCC4)c3)c21 [Example 6] | 7.4 | 31.6 to 100 | 3 | F (F means a ratio of between 1 and 5) | 316 to 1000 | 631 | – | – | –
21 | C[C@@]1(O)C(=O)Nc2nccc(-c3nn(C4(CC#N)CNC4)c4ccccc34)c21 (single isomer, unassigned) [Example 49] | – | 3.16 to 10 | 3 | F (F means a ratio of between 1 and 5) | 100 to 316 | 316 | 6.31 | – | –
22 | CC1(C)C(=O)Nc2nccc(-c3nn(CC4(F)CCNCC4)c4ccccc34)c21 [Example 38] | 8.9 | 1 to 3.16 | 16 | D (D means a ratio of between 10 and 20) | 10 to 31.6 | 20 | – | – | –
23 | CC1(C)C(=O)Nc2nccc(-c3nn([C@H]4CC[C@H](N)CC4)c4ccccc34)c21 [Example 41] | 9.4 | ≤ 1 | 14 | D (D means a ratio of between 10 and 20) | 10 to 31.6 | 15.8 | – | – | –
24 | C[C@@]1(O)C(=O)Nc2nccc(-c3nn(C4(CC#N)CCC4)c4cc(F)ccc34)c21 (single isomer, unassigned) [Example 59] | – | ≤ 1 | 11 | D (D means a ratio of between 10 and 20) | 10 to 31.6 | 20 | 0.631 | – | –
25 | CC1(O)C(=O)Nc2nccc(-c3ccn(C4CCNCC4)n3)c21 (stereo not drawn) [Example 13] | 7.4 | 31.6 to 100 | 4 | F (F means a ratio of between 1 and 5) | 316 to 1000 | 631 | – | – | –
